Reference: US10660876B2, “Amino compounds for treatment of medical disorders” (Achillion Pharmaceuticals, Inc., priority 2015, dated 2020)
pIC50: −log10 of the molar value.

The molecules below were run against Human Factor D (Homo sapiens (Human), UniProt P00746) (assay: Human Factor D Assay). Settings: Table 1; Factor D purified from human serum, 80 nM, substrate Z-L-Lys-SBzl; read-out: IC50.
Chain of Human Factor D (P00746 26-253): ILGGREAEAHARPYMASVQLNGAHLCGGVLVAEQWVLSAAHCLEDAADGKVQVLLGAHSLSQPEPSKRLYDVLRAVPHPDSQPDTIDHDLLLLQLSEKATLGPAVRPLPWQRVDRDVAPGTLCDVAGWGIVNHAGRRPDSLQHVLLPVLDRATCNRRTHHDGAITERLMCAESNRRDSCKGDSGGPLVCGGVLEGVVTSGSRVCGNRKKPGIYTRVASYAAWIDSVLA
Format: biochemical
Description: Example 12. Human Factor D Assay
Human Factor D (purified from human serum, Complement Technology, Inc.) at 80 nM final concentration is incubated with test compound at various concentrations for 5 minutes at room temperature in 50 mM Tris, 1M NaCl, pH 7.5. A synthetic substrate Z-L-Lys-SBzl and DTNB (Ellman's reagent) are added to final concentrations of 100 μM each. Absorbance at 405 nm (A405) is recorded at 30 second intervals for 30 minutes using a microplate spectrophotometer. IC50 values are calculated by nonlinear regression of complement Factor D reaction rates as a function of test compound concentration.
With `CC(=O)c1cn(CC(=O)N2C[C@H](F)C[C@H]2C(=O)Nc2nc(-c3ccccc3Cl)ns2)c2ccc(Nc3cncnc3)cc12` [Compound 29, (2S,4R)-1-(2-(3-acetyl-5-(pyrimidin-5-ylamino)-1H-indol-1-yl)acetyl)-N-(3-(2-chlorophenyl)-1,2,4-thiadiazol-5-yl)-4-fluoropyrrolidine-2-carboxamide] the pIC50 was > 6.00. With `CC(=O)c1cn(CC(=O)N2C[C@H](F)C[C@H]2C(=O)Nc2ccc(OCc3ccccc3)cn2)c2ccc(Nc3cncnc3)cc12` [Compound 45, (2S,4R)-1-(2-(3-acetyl-5-(pyrimidin-5-ylamino)-1H-indol-1-yl)acetyl)-N-(5-(benzyloxy)pyridin-2-yl)-4-fluoropyrrolidine-2-carboxamide] the pIC50 was > 6.00. `CC(=O)c1cn(CC(=O)N2C[C@H](F)C[C@H]2C(=O)Nc2ccc3ncsc3c2)c2ccc(Nc3cncnc3)cc12` [Compound 56, (2S,4R)-1-(2-(3-acetyl-5-(pyrimidin-5-ylamino)-1H-indol-1-yl)acetyl)-N-(benzo[d]thiazol-6-yl)-4-fluoropyrrolidine-2-carboxamide] was tested, and the pIC50 was > 6.00. In the case of `CC(=O)c1cn(CC(=O)N2C[C@H](F)C[C@H]2C(=O)Nc2ncc(Br)cn2)c2ccc(Nc3cncnc3)cc12` [Compound 44, (2S,4R)-1-(2-(3-acetyl-5-(pyrimidin-5-ylamino)-1H-indol-1-yl)acetyl)-N-(5-bromopyrimidin-2-yl)-4-fluoropyrrolidine-2-carboxamide], the pIC50 was > 6.00. `CC(=O)c1cn(CC(=O)N2C[C@H](F)C[C@H]2C(=O)N[C@@H](C)c2oc3ccc(F)cc3c2C)c2ccc(Nc3cncnc3)cc12` [Compound 75, (2S,4R)-1-(2-(3-acetyl-5-(pyrimidin-5-ylamino)-1H-indol-1-yl)acetyl)-4-fluoro-N-((S)-1-(5-fluoro-3-methylbenzofuran-2-yl)ethyl) pyrrolidine-2-carboxamide] was tested, and the pIC50 was > 6.00. `CC(=O)c1cn(CC(=O)N2C[C@H](F)C[C@H]2C(=O)Nc2cccc(Br)n2)c2ccc(Nc3cncnc3)cc12` [Compound 4, (2S,4R)-1-(2-(3-acetyl-5-(pyrimidin-5-ylamino)-1H-indol-1-yl)acetyl)-N-(6-bromopyridin-2-yl)-4-fluoropyrrolidine-2-carboxamide] was tested, and the pIC50 was > 6.00. For `CC(=O)c1cn(CC(=O)N2C[C@H](F)C[C@H]2C(=O)NCc2ccncc2)c2ccc(Nc3cncnc3)cc12` [Compound 59, (2S,4R)-1-(2-(3-acetyl-5-(pyrimidin-5-ylamino)-1H-indol-1-yl)acetyl)-4-fluoro-N-(pyridin-4-ylmethyl) pyrrolidine-2-carboxamide], the pIC50 was > 6.00. For `CC(=O)c1cn(CC(=O)N2C[C@H](F)C[C@H]2C(=O)Nc2nccc(Cl)n2)c2ccc(Nc3cncnc3)cc12` [Compound 73, (2S,4R)-1-(2-(3-acetyl-5-(pyrimidin-5-ylamino)-1H-indol-1-yl)acetyl)-N-(4-chloropyrimidin-2-yl)-4-fluoropyrrolidine-2-carboxamide], the pIC50 was > 6.00. Work on `CC(=O)c1cn(CC(=O)N2C[C@H](F)C[C@H]2C(=O)Nc2nn(C)c3c2CC(C)C(=O)N3)c2ccc(Nc3cncnc3)cc12` (some centres unmarked) [Compound 67, (2S 4R)-1-(2-(3-acetyl-5-(pyrimidin-5-ylamino)-1H-indol-1-yl)acetyl)-N-(1,5-dimethyl-6-oxo-4,5,6,7-tetrahydro-1H-pyrazolo[3,4-b]pyridin-3-yl)-4-fluoropyrrolidine-2-carboxamide] yielded a pIC50 of 5.00 to 6.00.

Same assay, conditions: Table 3; Factor D purified from human serum, 80 nM, substrate Z-L-Lys-SBzl; read-out: IC50 (Stars)
In the case of `CC(=O)c1nn(CC(=O)N2[C@H](C(=O)Nc3nc(Br)ccc3C)C[C@@]3(C)C[C@@H]23)c2ccc(Nc3cncc(F)c3)cc12` [Compound 165, (1R,3S,5R)-2-(2-(3-acetyl-5-((5-fluoropyridin-3-yl)amino)-1H-indazol-1-yl)acetyl)-N-(6-bromo-3-methylpyridin-2-yl)-5-methyl-2-azabicyclo[3.1.0] hexane-3-carboxamide], the pIC50 was > 6.00. For `CC(=O)c1cn(CC(=O)N2C[C@H](F)C[C@H]2C(=O)NCc2ccccc2)c2ccc(Nc3cccnc3)cc12` [Compound 146, (2S,4R)-1-(2-(3-acetyl-5-(pyridin-3-ylamino)-1H-indol-1-yl)acetyl)-N-benzyl-4-fluoropyrrolidine-2-carboxamide], the pIC50 was > 6.00.
